Measured values from patent US12509452B2, “Substituted-isoxazoline-containing aromatic compound, preparation method therefor, herbicidal composition and use thereof” (QINGDAO KINGAGROOT CHEMICAL COMPOUND CO., LTD., priority 2019, dated 2025).

Legend:
Experiment in all cases: weeding effect in post-emergence stage
Format in all cases: in vivo
Beckmannia syzigachne = system: Beckmannia syzigachne
Summary of the method: (§1)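 Potted weeds were sown, covered with 0.5-2 cm soil and grown in a greenhouse, then sprayed at the 2-3 leaf stage (2 weeks after sowing) via spray tower; compounds in acetone with Tween 80 and 1.5 liter/ha methyl oleate concentrate; doses 500-7.5 g a.i./ha. Fresh-weight control scored on 0-5 levels after 3 weeks; triplicate means.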

Rorippa indica = system: Rorippa indica
Summary of the method: as §1

Conyza japonica = system: Conyza japonica
Summary of the method: as §1

Alopecurus japonicus = system: Alopecurus japonicus
Summary of the method: as §1

SMILES	weeding effect in post-emergence stage, Beckmannia syzigachne (activity level) (Beckmannia syzigachne; dose 125 g a.i./ha)	weeding effect in post-emergence stage, Rorippa indica (activity level) (Rorippa indica; dose 125 g a.i./ha)	weeding effect in post-emergence stage, Conyza japonica (activity level) (Conyza japonica; dose 125 g a.i./ha)	weeding effect in post-emergence stage, Alopecurus japonicus (activity level) (Alopecurus japonicus; dose 125 g a.i./ha)	weeding effect in post-emergence stage, Beckmannia syzigachne (activity level) (Beckmannia syzigachne; dose 15 g a.i./ha)	weeding effect in post-emergence stage, Rorippa indica (activity level) (Rorippa indica; dose 15 g a.i./ha)	weeding effect in post-emergence stage, Conyza japonica (activity level) (Conyza japonica; dose 15 g a.i./ha)	weeding effect in post-emergence stage, Alopecurus japonicus (activity level) (Alopecurus japonicus; dose 15 g a.i./ha)	weeding effect in post-emergence stage, Beckmannia syzigachne (activity level) (Beckmannia syzigachne; dose 7.5 g a.i./ha)	weeding effect in post-emergence stage, Rorippa indica (activity level) (Rorippa indica; dose 7.5 g a.i./ha)	weeding effect in post-emergence stage, Conyza japonica (activity level) (Conyza japonica; dose 7.5 g a.i./ha)	weeding effect in post-emergence stage, Alopecurus japonicus (activity level) (Alopecurus japonicus; dose 7.5 g a.i./ha)
CCOC(=O)C1(COC(=O)C(=O)O)CC(c2cc(-n3c(=O)cc(C(F)(F)F)n(C)c3=O)c(F)cc2Cl)=NO1 (racemic) [Compound 220]	5 (Level 5: growth control rate is above 85%)	5 (Level 5: growth control rate is above 85%)	5 (Level 5: growth control rate is above 85%)	5 (Level 5: growth control rate is above 85%)								
COC(=O)C1(OC)CC(c2cc(-n3c(=O)cc(C(F)(F)F)n(C)c3=O)c(F)cc2Cl)=NO1 (racemic) [Compound 226]	5 (Level 5: growth control rate is above 85%)	5 (Level 5: growth control rate is above 85%)	5 (Level 5: growth control rate is above 85%)	5 (Level 5: growth control rate is above 85%)								
CCOC(=O)C1(CC)CC(c2cc(-n3c(=S)cc(C(F)(F)F)n(C)c3=O)c(F)cc2Cl)=NO1 (racemic) [Compound 228]	5 (Level 5: growth control rate is above 85%)	5 (Level 5: growth control rate is above 85%)	5 (Level 5: growth control rate is above 85%)	5 (Level 5: growth control rate is above 85%)	4 (Level 4: growth control rate is greater than or equal to 60% and less than 85%)	5 (Level 5: growth control rate is above 85%)	5 (Level 5: growth control rate is above 85%)	5 (Level 5: growth control rate is above 85%)				
CCOC(=O)C1(CC)CC(c2cc(-n3c(=O)cc(C(F)(F)F)n(C)c3=S)c(F)cc2Cl)=NO1 (racemic) [Compound 229]	5 (Level 5: growth control rate is above 85%)	5 (Level 5: growth control rate is above 85%)	5 (Level 5: growth control rate is above 85%)	5 (Level 5: growth control rate is above 85%)								
CCOC(=O)C1(CC)CC(c2cc(-n3c(=S)cc(C(F)(F)F)n(C)c3=S)c(F)cc2Cl)=NO1 (racemic) [Compound 230]	5 (Level 5: growth control rate is above 85%)	5 (Level 5: growth control rate is above 85%)	5 (Level 5: growth control rate is above 85%)	5 (Level 5: growth control rate is above 85%)								
CCOC(=O)C1(C2CC2)CC(c2cc(-n3c(=S)cc(C(F)(F)F)n(C)c3=O)c(F)cc2Cl)=NO1 (racemic) [Compound 231]	5 (Level 5: growth control rate is above 85%)	5 (Level 5: growth control rate is above 85%)	5 (Level 5: growth control rate is above 85%)	5 (Level 5: growth control rate is above 85%)	4 (Level 4: growth control rate is greater than or equal to 60% and less than 85%)	5 (Level 5: growth control rate is above 85%)	5 (Level 5: growth control rate is above 85%)					
CCOC(=O)[C@]1(CC)CC(c2cc(-n3c(=O)n(C)c(=S)n(C)c3=O)c(F)cc2Cl)=NO1 [3(S)]	5 (Level 5: growth control rate is above 85%)	5 (Level 5: growth control rate is above 85%)	5 (Level 5: growth control rate is above 85%)	5 (Level 5: growth control rate is above 85%)					4 (Level 4: growth control rate is greater than or equal to 60% and less than 85%)	5 (Level 5: growth control rate is above 85%)	4 (Level 4: growth control rate is greater than or equal to 60% and less than 85%)	5 (Level 5: growth control rate is above 85%)
CCC[C@@]1(C(=O)OCC)CC(c2cc(-n3c(=O)n(C)c(=S)n(C)c3=O)c(F)cc2Cl)=NO1 [4(S)]	5 (Level 5: growth control rate is above 85%)	5 (Level 5: growth control rate is above 85%)	5 (Level 5: growth control rate is above 85%)	5 (Level 5: growth control rate is above 85%)	5 (Level 5: growth control rate is above 85%)	5 (Level 5: growth control rate is above 85%)	5 (Level 5: growth control rate is above 85%)	5 (Level 5: growth control rate is above 85%)				
CCOC(=O)[C@@]1(C2CC2)CC(c2cc(-n3c(=O)n(C)c(=S)n(C)c3=O)c(F)cc2Cl)=NO1 [17(S)]	5 (Level 5: growth control rate is above 85%)	5 (Level 5: growth control rate is above 85%)	5 (Level 5: growth control rate is above 85%)	5 (Level 5: growth control rate is above 85%)								
CCOC(=O)[C@]1(CBr)CC(c2cc(-n3c(=O)n(C)c(=S)n(C)c3=O)c(F)cc2Cl)=NO1 [31(S)]					5 (Level 5: growth control rate is above 85%)	5 (Level 5: growth control rate is above 85%)	5 (Level 5: growth control rate is above 85%)	5 (Level 5: growth control rate is above 85%)				
CCOC(=O)[C@]1(C(F)(F)F)CC(c2cc(-n3c(=O)n(C)c(=S)n(C)c3=O)c(F)cc2Cl)=NO1 [33(S)]					5 (Level 5: growth control rate is above 85%)	5 (Level 5: growth control rate is above 85%)	5 (Level 5: growth control rate is above 85%)	5 (Level 5: growth control rate is above 85%)				
CCOC(=O)[C@@]1(CCF)CC(c2cc(-n3c(=O)n(C)c(=S)n(C)c3=O)c(F)cc2Cl)=NO1 [34(S)]	5 (Level 5: growth control rate is above 85%)	5 (Level 5: growth control rate is above 85%)	5 (Level 5: growth control rate is above 85%)	5 (Level 5: growth control rate is above 85%)								
CCOC(=O)COC[C@]1(C(=O)OCC)CC(c2cc(-n3c(=O)n(C)c(=S)n(C)c3=O)c(F)cc2Cl)=NO1 [54(S)]					5 (Level 5: growth control rate is above 85%)	5 (Level 5: growth control rate is above 85%)	5 (Level 5: growth control rate is above 85%)	5 (Level 5: growth control rate is above 85%)				
COC(=O)[C@@]1(c2ccccc2)CC(c2cc(-n3c(=O)n(C)c(=S)n(C)c3=O)c(F)cc2Cl)=NO1 [56(S)]					5 (Level 5: growth control rate is above 85%)	5 (Level 5: growth control rate is above 85%)	5 (Level 5: growth control rate is above 85%)	5 (Level 5: growth control rate is above 85%)				
COC(=O)[C@]1(Cc2ccccc2)CC(c2cc(-n3c(=O)n(C)c(=S)n(C)c3=O)c(F)cc2Cl)=NO1 [59(S)]					5 (Level 5: growth control rate is above 85%)	5 (Level 5: growth control rate is above 85%)	5 (Level 5: growth control rate is above 85%)	5 (Level 5: growth control rate is above 85%)				
